Laboratory results reported in US8138168B1 (Takeda Pharmaceutical Company Limited, priority 2007, dated 2012).

What follows are compounds tested against T1, Recombinant human renin (Homo sapiens, UniProt P00797) (assay: In vitro enzymatic activity assay of renin inhibitors (fluorogenic peptide substrate)). Conditions: read-out: IC50 of Exemplified Compounds Against Renin.
T1 construct: isolate the active form (residues 67-406); made in house; host or cells: FreeStyle 293-F cells (transient expression of pcDNA3.1(+)/hREN)
T1 sequence (P00797 67-406): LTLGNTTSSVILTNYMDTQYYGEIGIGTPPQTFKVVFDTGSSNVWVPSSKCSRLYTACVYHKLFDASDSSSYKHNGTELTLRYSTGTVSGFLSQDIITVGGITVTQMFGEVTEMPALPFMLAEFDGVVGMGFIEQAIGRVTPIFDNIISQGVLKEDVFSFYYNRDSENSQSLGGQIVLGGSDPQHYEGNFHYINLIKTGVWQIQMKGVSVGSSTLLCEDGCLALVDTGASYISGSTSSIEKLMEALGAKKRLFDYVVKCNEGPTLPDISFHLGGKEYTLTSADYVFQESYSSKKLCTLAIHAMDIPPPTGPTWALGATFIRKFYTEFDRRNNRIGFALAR
Assay type: biochemical
Procedure, shortened: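 Enzyme: recombinant human renin, 3 nM final, 10 min compound pre-incubation at 37 °C; buffer 50 mM Hepes pH 7.4 with 0.1 mg/mL BSA or extra 2% BSA; 5% DMSO.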

Compared with `COCCCn1c([C@@H]2CCCN(C(=O)[C@@H]3CN(C(=O)C4CCCCC4)C[C@H]3N)C2)nc2ccccc21` [Compound 405, ((3R,4S)-4-amino-1-(cyclohexanecarbonyl)pyrrolidin-3-yl)((R)-3-(1-(3-methoxypropyl)-1H-benzo[d]imidazol-2-yl)piperidin-1-yl)methanone], `COCCCn1c([C@@H]2CCCN(C(=O)[C@@H]3CN(S(=O)(=O)c4ccc(NC(C)=O)cc4)C[C@H]3N)C2)nc2ccccc21` [Compound 380, N-(4-((3S,4R)-3-amino-4-((R)-3-(1-(3-methoxypropyl)-1H-benzo[d]imidazol-2-yl)piperidine-1-carbonyl)pyrrolidin-1-ylsulfonyl)phenyl)acetamide] is lower in IC50: over 1000 nM for the first, 100 to 1000 nM for the second.

`COCCCn1c([C@@H]2CCCN(C(=O)C[C@H](N)Cc3ccc(-c4ccc5nccn5c4)cc3)C2)nc2ccccc21` [Compound 139, (R)-3-amino-4-(4-(imidazo[1,2-a]pyridin-6-yl)phenyl)-1-((R)-3-(1-(3-methoxypropyl)-1H-benzo[d]imidazol-2-yl)piperidin-1-yl)butan-1-one] and `COCCCn1c([C@@H]2CCCN(C(=O)C[C@H](N)Cc3ccc(-c4ccnc(Cl)c4)cc3)C2)nc2ccccc21` [Compound 133, (R)-3-amino-4-(4-(2-chloropyridin-4-yl)phenyl)-1-((R)-3-(1-(3-methoxypropyl)-1H-benzo[d]imidazol-2-yl)piperidin-1-yl)butan-1-one] cannot be ordered by IC50: under 100 nM for the first, under 100 nM for the second.

Compared with `COCCCn1c([C@@H]2CCCN(C(=O)[C@@H]3CN(S(=O)(=O)c4cccc(F)c4)C[C@H]3N)C2)nc2ccccc21` [Compound 428, ((3R,4S)-4-amino-1-(3-fluorophenylsulfonyl)pyrrolidin-3-yl)((R)-3-(1-(3-methoxypropyl)-1H-benzo[d]imidazol-2-yl)piperidin-1-yl)methanone], `COCCCn1c([C@@H]2CCCN(C(=O)[C@@H]3CN(S(=O)(=O)c4ccc5[nH]c(=O)[nH]c5c4)C[C@H]3N)C2)nc2ccccc21` [Compound 338] is lower in IC50: 100 to 1000 nM for the first, under 100 nM for the second. The second is the more potent here.

`COCCCn1c([C@@H]2CCCN(C(=O)C[C@H](N)CNC(=O)Nc3cc(C)ccc3OC)C2)nc2ccccc21` [Compound 287, 1-((S)-2-amino-4-((R)-3-(1-(3-methoxypropyl)-1H-benzo[d]imidazol-2-yl)piperidin-1-yl)-4-oxobutyl)-3-(2-methoxy-5-methylphenyl)urea] and `COCCCn1c([C@@H]2CCCN(C(=O)C[C@H](N)CNC(=O)c3ccc(OC)cc3)C2)nc2ccccc21` [Compound 280, N-((S)-2-amino-4-((R)-3-(1-(3-methoxypropyl)-1H-benzo[d]imidazol-2-yl)piperidin-1-yl)-4-oxobutyl)-4-methoxybenzamide] fall in the same range of IC50: 100 to 1000 nM for the first, 100 to 1000 nM for the second.

`COCCCn1c([C@@H]2CCCN(C(=O)C[C@H](N)CNC(=O)c3ccc(-c4cccc(Cl)c4Cl)o3)C2)nc2ccccc21` [Compound 277, N-((S)-2-amino-4-((R)-3-(1-(3-methoxypropyl)-1H-benzo[d]imidazol-2-yl)piperidin-1-yl)-4-oxobutyl)-5-(2,3-dichlorophenyl)furan-2-carboxamide] and `COCCCn1c([C@@H]2CCCN(C(=O)C[C@H](N)CNC(=O)c3ccc(-c4ccc(Cl)cc4Cl)o3)C2)nc2ccccc21` [Compound 267, N-((S)-2-amino-4-((R)-3-(1-(3-methoxypropyl)-1H-benzo[d]imidazol-2-yl)piperidin-1-yl)-4-oxobutyl)-5-(2,4-dichlorophenyl)furan-2-carboxamide] fall in the same range of IC50: 100 to 1000 nM for the first, 100 to 1000 nM for the second.

Compared with `COCCCn1c(C2CCCN(C(=O)C[C@H](N)Cc3ccc4ccccc4c3)C2)nc2ccc(Cl)nc21` (stereo partly drawn) [Compound 102, (R)-3-amino-1-(3-(5-chloro-3-(3-methoxypropyl)-3H-imidazo[4,5-b]pyridin-2-yl)piperidin-1-yl)-4-(naphthalen-2-yl)butan-1-one], `COCCCn1c(C2CCCN(C(=O)C[C@H](N)Cc3ccc4ccccc4c3)C2)nc2ccc(OC)nc21` (stereo partly drawn) [Compound 100, (R)-3-amino-1-(3-(5-methoxy-3-(3-methoxypropyl)-3H-imidazo[4,5-b]pyridin-2-yl)piperidin-1-yl)-4-(naphthalen-2-yl)butan-1-one] is lower in IC50: over 1000 nM for the first, 100 to 1000 nM for the second. The second is the more potent here.

`O=C(Nc1ccc2c(c1)OCO2)N1CCCC(c2nc3ccccc3[nH]2)C1` (centres unmarked) [Compound 11, N-(benzo[d][1,3]dioxol-5-yl)-3-(1H-benzo[d]imidazol-2-yl)piperidine-1-carboxamide] and `O=C(Nc1ccc2c(c1)OCCO2)N1CCCC(c2nc3ccccc3[nH]2)C1` (centres unmarked) [Compound 15, 3-(1H-benzo[d]imidazol-2-yl)-N-(2,3-dihydrobenzo[b][1,4]dioxin-6-yl)piperidine-1-carboxamide] cannot be ordered by IC50: over 1000 nM for the first, over 1000 nM for the second.

First: CC(=O)NCCn1c([C@@H]2CCCN(C(=O)C[C@H](N)Cc3ccc(-c4ccc(N)nc4)cc3)C2)nc2c(Cl)cccc21 [Compound 479, N-(2-(2-((R)-1-((R)-3-amino-4-(4-(6-aminopyridin-3-yl)phenyl)butanoyl)piperidin-3-yl)-4-chloro-1H-benzo[d]imidazol-1-yl)ethyl)acetamide]
Second: CC(=O)NCCn1c([C@@H]2CCCN(C(=O)C[C@H](N)Cc3ccc(-c4ccc5c(c4)OC(F)(F)O5)cc3)C2)nc2ccccc21 [Compound 448, N-(2-(2-((R)-1-((R)-3-amino-4-(4-(2,2-difluorobenzo[d][1,3]dioxol-5-yl)phenyl)butanoyl)piperidin-3-yl)-1H-benzo[d]imidazol-1-yl)ethyl)acetamide]
The IC50 of the first is lower: under 100 nM for the first, 100 to 1000 nM for the second. The first is the more potent here.

`CCCNC(=O)N1CCCC(c2nc3ccccc3[nH]2)C1` (centres unmarked) [Compound 17, 3-(1H-benzo[d]imidazol-2-yl)-N-propylpiperidine-1-carboxamide] and `O=C(C1CNC1)N1CCCC(c2nc3ccccc3[nH]2)C1` (centres unmarked) [Compound 55, (3-(1H-benzo[d]imidazol-2-yl)piperidin-1-yl)(azetidin-3-yl)methanone] cannot be ordered by IC50: over 1000 nM for the first, over 1000 nM for the second.

`O=C(C1CCCNC1)N1CCCC(c2nc3ccccc3[nH]2)C1` (centres unmarked) [Compound 52, (3-(1H-benzo[d]imidazol-2-yl)piperidin-1-yl)(piperidin-3-yl)methanone] and `O=C([C@@H]1CCCN1C1CCNCC1)N1CCCC(c2nc3ccccc3[nH]2)C1` (stereo partly drawn) [Compound 49, (3-(1H-benzo[d]imidazol-2-yl)piperidin-1-yl)((S)-1-(piperidin-4-yl)pyrrolidin-2-yl)methanone] cannot be ordered by IC50: over 1000 nM for the first, over 1000 nM for the second.

`COCCCn1c([C@@H]2CCCN(C(=O)C[C@H](N)CNS(=O)(=O)c3ccc(Cl)c(Cl)c3)C2)nc2ccccc21` [Compound 305, N-((S)-2-amino-4-((R)-3-(1-(3-methoxypropyl)-1H-benzo[d]imidazol-2-yl)piperidin-1-yl)-4-oxobutyl)-3,4-dichlorobenzenesulfonamide] and `COCCCn1c([C@@H]2CCCN(C(=O)C[C@H](N)CNC(=O)c3cccc(Oc4ccccc4)c3)C2)nc2ccccc21` [Compound 270, N-((S)-2-amino-4-((R)-3-(1-(3-methoxypropyl)-1H-benzo[d]imidazol-2-yl)piperidin-1-yl)-4-oxobutyl)-3-phenoxybenzamide] fall in the same range of IC50: 100 to 1000 nM for the first, 100 to 1000 nM for the second.

`COCCCn1c([C@@H]2CCCN(C(=O)C[C@H](N)Cc3ccc(-n4c(=O)oc5ccccc54)cc3)C2)nc2ccccc21` [Compound 211] and `CCCn1c(=O)n(-c2ccc(C[C@@H](N)CC(=O)N3CCC[C@@H](c4nc5ccccc5n4CCCOC)C3)cc2)c2ccccc21` [Compound 221, 1-(4-((R)-2-amino-4-((R)-3-(1-(3-methoxypropyl)-1H-benzo[d]imidazol-2-yl)piperidin-1-yl)-4-oxobutyl)phenyl)-3-propyl-1H-benzo[d]imidazol-2(3H)-one] cannot be ordered by IC50: under 100 nM for the first, under 100 nM for the second.

First: COCCCn1c([C@@H]2CCCN(C(=O)[C@@H]3CN(S(=O)(=O)c4cc(Br)ccc4OC)C[C@H]3N)C2)nc2ccccc21 [Compound 401, ((3R,4S)-4-amino-1-(5-bromo-2-methoxyphenylsulfonyl)pyrrolidin-3-yl)((R)-3-(1-(3-methoxypropyl)-1H-benzo[d]imidazol-2-yl)piperidin-l-yl)methanone]
Second: Nc1ncc(-c2ccc(C[C@@H](N)CC(=O)N3CCC[C@@H](c4nc5ccccc5n4CCF)C3)cc2)cn1 [Compound 509, (R)-3-amino-4-(4-(2-aminopyrimidin-5-yl)phenyl)-1-((R)-3-(1-(2-fluoroethyl)-1H-benzo[d]imidazol-2-yl)piperidin-1-yl)butan-1-one]
The IC50 of the first is higher: over 1000 nM for the first, 100 to 1000 nM for the second. The second is the more potent here.

`COc1cc(OC)cc([C@@H](N)CC(=O)N2CCCC(c3nc4ccccc4[nH]3)C2)c1` (stereo partly drawn) [Compound 31, (3S)-1-(3-(1H-benzo[d]imidazol-2-yl)piperidin-1-yl)-3-amino-3-(3,5-dimethoxyphenyl)propan-1-one] and `N[C@@H](CC(=O)N1CCCC(c2nc3ccccc3[nH]2)C1)Cc1ccc([N+](=O)[O-])cc1` (stereo partly drawn) [Compound 39, (3R)-1-(3-(1H-benzo[d]imidazol-2-yl)piperidin-1-yl)-3-amino-4-(4-nitrophenyl)butan-1-one] cannot be ordered by IC50: over 1000 nM for the first, over 1000 nM for the second.

Compound `NC(=O)CCn1c([C@@H]2CCCN(C(=O)C[C@H](N)Cc3ccc(-c4cnc(N)nc4)cc3)C2)nc2ccccc21` [Compound 481, 3-(2-((R)-1-((R)-3-amino-4-(4-(2-aminopyrimidin-5-yl)phenyl)butanoyl)piperidin-3-yl)-1H-benzo[d]imidazol-1-yl)propanamide] has an IC50 of 100 to 1000 nM.
